These results are taken from patent publication US9499550B2 (BRISTOL-MYERS SQUIBB COMPANY, priority 2012, dated 2016).

In experiment [1] the test system is HCV genotype 1a (H77 strain) replicon in HUH-7 cells. In words: HCV replicon luciferase reporter assay, genotype 1a. It counts as cell-based. As to conditions: Hepatitis C virus, Huh-7, 72 h, HCV genotype 1a replicon luciferase, 3 days incubation, read-out: LE_1a (EC50, range). The procedure, abridged:
(§1)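 Replicon inhibition for both genotypes was measured as Renilla luciferase signal (EnduRen, 7.5 μM final, 2 h) after 3-day, 37° C exposure of replicon-bearing HUH-7 cells in 4% FCS DMEM, 0.5% DMSO. The 1b construct carries S1179I; the 1a H77 construct carries P1496L and S2204I. Twenty-point, 3-fold dilutions were fitted four-parametrically for EC50, and CC50 was taken from multiplexed Cell Titer-Blue.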
For orientation: A replicon is a self-replicating genome or part of one, used to study replication in cells.

Experiment [2] has as its system HCV genotype 1b (Con1) replicon in HUH-7 cells. As to the kind of experiment: HCV replicon luciferase reporter assay, genotype 1b. It counts as cell-based. As to conditions: Hepatitis C virus, Huh-7, 72 h, HCV genotype 1b replicon luciferase, 3 days incubation, read-out: LE_1b (EC50, range). The essentials: as §1

`CC(C)Oc1ccc2c(O[C@@H]3C[C@H]4C(=O)N[C@]5(C(=O)NS(=O)(=O)C6(C)CC6)C[C@H]5/C=C\CC[C@H](C)C[C@@H](C)[C@H](NC(=O)O[C@H](C)C(F)(F)F)C(=O)N4C3)nccc2c1` [Compound 5160, (R)-1,1,1-trifluoropropan-2-yl ((2R,6S,7R,9S,13aS,14aR,16aS,Z)-2-((6-isopropoxyisoquinolin-1-yl)oxy)-7,9-dimethyl-14a-(((1-methylcyclopropyl)sulfonyl)carbamoyl)-5,16-dioxo-1,2,3,5,6,7,8,9,10,11,13a,14,14a,15,16,16a-hexadecahydrocyclopropa[e]pyrrolo[1,2-a][1,4]diazacyclopentadecin-6-yl)carbamate]: the EC50 was 4.82 to 103 nM in experiment [1] and less than 5.46 nM in experiment [2].

As to `CC(C)Oc1ccc2c(O[C@@H]3C[C@H]4C(=O)N[C@]5(C(=O)NS(=O)(=O)C6(C)CC6)C[C@H]5/C=C\CC[C@@H](C)C[C@@H](C)[C@H](NC(=O)O[C@H](C)C(F)(F)F)C(=O)N4C3)nccc2c1` [Compound 5161, (R)-1,1,1-trifluoropropan-2-yl ((2R,6S,7R,9R,13aS,14aR,16aS,Z)-2-((6-isopropoxyisoquinolin-1-yl)oxy)-7,9-dimethyl-14a-(((1-methylcyclopropyl)sulfonyl)carbamoyl)-5,16-dioxo-1,2,3,5,6,7,8,9,10,11,13a,14,14a,15,16,16a-hexadecahydrocyclopropa[e]pyrrolo[1,2-a][1,4]diazacyclopentadecin-6-yl)carbamate], the EC50 in experiment [1] and in experiment [2] was less than 5.46 nM throughout.

Consider `CC(C)Oc1ccc2c(O[C@@H]3C[C@H]4C(=O)N[C@]5(C(=O)NS(=O)(=O)C6(C)CC6)C[C@H]5/C=C\CC[C@H](C)C[C@@H](C)[C@H](NC(=O)O[C@@H]5C[C@@H]6C[C@@H]6C5)C(=O)N4C3)nccc2c1` [Compound 5162, (1R,3r,5S)-bicyclo[3.1.0]hexan-3-yl((2R,6S,7R,9S,13aS,14aR,16aS,Z)-2-((6-isopropoxyisoquinolin-1-yl)oxy)-7,9-dimethyl-14a-(((1-methylcyclopropyl)sulfonyl)carbamoyl)-5,16-dioxo-1,2,3,5,6,7,8,9,10,11,13a,14,14a,15,16,16a-hexadecahydrocyclopropa[e]pyrrolo[1,2-a][1,4]diazacyclopentadecin-6-yl)carbamate], for which the half-maximal effective concentration (EC50) was 4.82 to 103 nM in experiment [1] and less than 5.46 nM in experiment [2].

Regarding `CC(C)Oc1ccc2c(O[C@@H]3C[C@H]4C(=O)N[C@]5(C(=O)NS(=O)(=O)C6(C)CC6)C[C@H]5/C=C\CC[C@@H](C)C[C@@H](C)[C@H](NC(=O)O[C@@H]5C[C@@H]6C[C@@H]6C5)C(=O)N4C3)nccc2c1` [Compound 5163, (1R,3r,5S)-bicyclo[3.1.0]hexan-3-yl((2R,6S,7R,9R,13aS,14aR,16aS,Z)-2-((6-isopropoxyisoquinolin-1-yl)oxy)-7,9-dimethyl-14a-(((1-methylcyclopropyl)sulfonyl)carbamoyl)-5,16-dioxo-1,2,3,5,6,7,8,9,10,11,13a,14,14a,15,16,16a-hexadecahydrocyclopropa[e]pyrrolo[1,2-a][1,4]diazacyclopentadecin-6-yl)carbamate], the 50% effective concentration (EC50) in experiment [1] and in experiment [2] was less than 5.46 nM each time.

Regarding `[2H]C([2H])([2H])C(C)(OC(=O)N[C@@H]1C(=O)N2C[C@H](Oc3nccc4cc(OC(C)C)ccc34)C[C@H]2C(=O)N[C@]2(C(=O)NS(=O)(=O)C3(C)CC3)C[C@H]2/C=C\CC[C@H](C)C[C@H]1C)C([2H])([2H])[2H]` [Compound 5164], the EC50 in experiment [1] and in experiment [2] was 4.82 to 103 nM throughout.

`[2H]C([2H])([2H])C(C)(OC(=O)N[C@@H]1C(=O)N2C[C@H](Oc3nccc4cc(OC(C)C)ccc34)C[C@H]2C(=O)N[C@]2(C(=O)NS(=O)(=O)C3(C)CC3)C[C@H]2/C=C\CC[C@@H](C)C[C@H]1C)C([2H])([2H])[2H]` [Compound 5165]: the half-maximal effective concentration (EC50) in experiment [1] and in experiment [2] was less than 5.46 nM in each case.

`[2H]C([2H])([2H])C(OC(=O)N[C@@H]1C(=O)N2C[C@H](Oc3nccc4cc(OC(C)C)ccc34)C[C@H]2C(=O)N[C@]2(C(=O)NS(=O)(=O)C3(C)CC3)C[C@H]2/C=C\CC[C@H](C)C[C@H]1C)(C([2H])([2H])[2H])C([2H])([2H])[2H]` [Compound 5166, 1,1,1,3,3,3-hexadeutero-2-(trideuteromethyl)propan-2-yl((2R,6S,7R,9S,13aS,14aR,16aS,Z)-2-((6-isopropoxyisoquinolin-1-yl)oxy)-7,9-dimethyl-14a-(((1-methylcyclopropyl)sulfonyl)carbamoyl)-5,16-dioxo-1,2,3,5,6,7,8,9,10,11,13a,14,14a,15,16,16a-hexadecahydrocyclopropa[e]pyrrolo[1,2-a][1,4]diazacyclopentadecin-6-yl)carbamate]: the EC50 in experiment [1] and in experiment [2] was 4.82 to 103 nM throughout.

Turning to `[2H]C([2H])([2H])C(OC(=O)N[C@@H]1C(=O)N2C[C@H](Oc3nccc4cc(OC(C)C)ccc34)C[C@H]2C(=O)N[C@]2(C(=O)NS(=O)(=O)C3(C)CC3)C[C@H]2/C=C\CC[C@@H](C)C[C@H]1C)(C([2H])([2H])[2H])C([2H])([2H])[2H]` [Compound 5167, 1,1,1,3,3,3-hexadeutero-2-(trideuteromethyl)propan-2-yl((2R,6S,7R,9R,13aS,14aR,16aS,Z)-2-((6-isopropoxyisoquinolin-1-yl)oxy)-7,9-dimethyl-14a-(((1-methylcyclopropyl)sulfonyl)carbamoyl)-5,16-dioxo-1,2,3,5,6,7,8,9,10,11,13a,14,14a,15,16,16a-hexadecahydrocyclopropa[e]pyrrolo[1,2-a][1,4]diazacyclopentadecin-6-yl)carbamate], the EC50 in experiment [1] and in experiment [2] was less than 5.46 nM each time.

Regarding `CCCOc1ccc2c(O[C@@H]3C[C@H]4C(=O)N[C@]5(C(=O)NS(=O)(=O)C6CC6)C[C@H]5/C=C\CC[C@H](C)C[C@@H](C)[C@H](NC(=O)OC(C)(C)C)C(=O)N4C3)nccc2c1` [Compound 5168, tert-butyl ((2R,6S,7R,9S,13aS,14aR,16aS,Z)-14a-((cyclopropylsulfonyl)carbamoyl)-7,9-dimethyl-5,16-dioxo-2-((6-propoxyisoquinolin-1-yl)oxy)-1,2,3,5,6,7,8,9,10,11,13a,14,14a,15,16,16a-hexadecahydrocyclopropa[e]pyrrolo[1,2-a][1,4]diazacyclopentadecin-6-yl)carbamate], the concentration for a half-maximal effect (EC50) in experiment [1] and in experiment [2] was less than 5.46 nM throughout.

Consider `CCCOc1ccc2c(O[C@@H]3C[C@H]4C(=O)N[C@]5(C(=O)NS(=O)(=O)C6CC6)C[C@H]5/C=C\CC[C@@H](C)C[C@@H](C)[C@H](NC(=O)OC(C)(C)C)C(=O)N4C3)nccc2c1` [Compound 5169, tert-butyl ((2R,6S,7R,9R,13aS,14aR,16aS,Z)-14a-((cyclopropylsulfonyl)carbamoyl)-7,9-dimethyl-5,16-dioxo-2-((6-propoxyisoquinolin-1-yl)oxy)-1,2,3,5,6,7,8,9,10,11,13a,14,14a,15,16,16a-hexadecahydrocyclopropa[e]pyrrolo[1,2-a][1,4]diazacyclopentadecin-6-yl)carbamate], for which the EC50 in experiment [1] and in experiment [2] was less than 5.46 nM in each case.

In the case of `CCCOc1ccc2c(O[C@@H]3C[C@H]4C(=O)N[C@]5(C(=O)NS(=O)(=O)C6CC6)C[C@H]5/C=C\CC[C@H](C)C[C@@H](C)[C@H](NC(=O)OC(C)(C)C(F)(F)F)C(=O)N4C3)nccc2c1` [Compound 5170, 1,1,1-trifluoro-2-methylpropan-2-yl((2R,6S,7R,9S,13aS,14aR,16aS,Z)-14a-((cyclopropylsulfonyl)carbamoyl)-7,9-dimethyl-5,16-dioxo-2-((6-propoxyisoquinolin-1-yl)oxy)-1,2,3,5,6,7,8,9,10,11,13a,14,14a,15,16,16a-hexadecahydrocyclopropa[e]pyrrolo[1,2-a][1,4]diazacyclopentadecin-6-yl)carbamate], the results for the 50% effective concentration (EC50) in experiment [1] and in experiment [2] were 4.82 to 103 nM and less than 5.46 nM, respectively.

For the compound `CCCOc1ccc2c(O[C@@H]3C[C@H]4C(=O)N[C@]5(C(=O)NS(=O)(=O)C6CC6)C[C@H]5/C=C\CC[C@@H](C)C[C@@H](C)[C@H](NC(=O)OC(C)(C)C(F)(F)F)C(=O)N4C3)nccc2c1` [Compound 5171, 1,1,1-trifluoro-2-methylpropan-2-yl((2R,6S,7R,9R,13aS,14aR,16aS,Z)-14a-((cyclopropylsulfonyl)carbamoyl)-7,9-dimethyl-5,16-dioxo-2-((6-propoxyisoquinolin-1-yl)oxy)-1,2,3,5,6,7,8,9,10,11,13a,14,14a,15,16,16a-hexadecahydrocyclopropa[e]pyrrolo[1,2-a][1,4]diazacyclopentadecin-6-yl)carbamate], the EC50 in experiment [1] and in experiment [2] was less than 5.46 nM each time.

As for `[2H]C([2H])([2H])C(OC(=O)N[C@@H]1C(=O)N2C[C@H](Oc3nccc4cc(OCCC)ccc34)C[C@H]2C(=O)N[C@]2(C(=O)NS(=O)(=O)C3CC3)C[C@H]2/C=C\CC[C@H](C)C[C@H]1C)(C([2H])([2H])[2H])C(F)(F)F` [Compound 5172], the values for the 50% effective concentration (EC50) in experiment [1] and in experiment [2] were 4.82 to 103 nM and less than 5.46 nM, respectively.

Turning to `[2H]C([2H])([2H])C(OC(=O)N[C@@H]1C(=O)N2C[C@H](Oc3nccc4cc(OCCC)ccc34)C[C@H]2C(=O)N[C@]2(C(=O)NS(=O)(=O)C3CC3)C[C@H]2/C=C\CC[C@@H](C)C[C@H]1C)(C([2H])([2H])[2H])C(F)(F)F` [Compound 5173], the 50% effective concentration (EC50) in experiment [1] and in experiment [2] was less than 5.46 nM in each case.

The term EC50 denotes the midpoint of the concentration-response curve.
